This passage reports GI50 and TGI results from PubChem BioAssay (NCI).

Test systems include 786-0 renal; DU-145 prostate; HT29 colon; NCI-H522 lung; SF-268 CNS; SK-MEL-28 melanoma; SN12C renal; SW-620 colon; UACC-257 melanoma; UO-31 renal.
Common to all, as to experiment: NCI-60 cell line screen, 48 h

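Method: 48-hour compound exposure of cells in 96-well plates, five concentrations, linear interpolation of endpoints. GI50 marks 50% less growth. At the TGI there is no net growth.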

Take `COC(=O)[C@]1(C)CC[C@]2(C)CC[C@]3(C)C(=CC(=O)[C@@H]4[C@@]5(C)CCC(=O)NC(C)(C)[C@@H]5CC[C@]43C)[C@@H]2C1`: the GI50 with 786-0 renal is 18.3 µM; in the assay with DU-145 prostate, 20.9 µM; in the assay with HT29 colon, 11.9 µM; in the assay with NCI-H522 lung, 18.2 µM; in the assay with SF-268 CNS, 28.2 µM; in the assay with SK-MEL-28 melanoma, 18.5 µM. Also, the GI50 is 17.1 µM in the assay with SN12C renal, 27.3 µM in the assay on SW-620 colon, 24.4 µM with UACC-257 melanoma and 16.9 µM with UO-31 renal. Also, the TGI was 35 µM in the assay on 786-0 renal; 89.6 µM in the assay on DU-145 prostate; 80.5 µM in the assay with HT29 colon; 69.3 µM in the assay with NCI-H522 lung; greater than 100 µM in the assay with SF-268 CNS; 36.5 µM in the assay with SK-MEL-28 melanoma. The TGI in the assay with SN12C renal was 35.2 µM; with SW-620 colon, greater than 100 µM; in the assay on UACC-257 melanoma, 94.3 µM; in the assay on UO-31 renal, 33.3 µM.

As to `COC(=O)C1=C(O)C(C(=O)OC)[C@@]2(O)[C@@H](C(=O)OC)C(c3ccccc3Cl)C[C@@H]1[C@@H]2C(=O)OC` (stereo not given in full), the GI50 was 5.22 µM in the assay on 786-0 renal; 14.9 µM in the assay on DU-145 prostate; 6.28 µM in the assay on HT29 colon; 3.16 µM in the assay on NCI-H522 lung; 14.5 µM in the assay with SF-268 CNS; 7.16 µM in the assay on SK-MEL-28 melanoma. The GI50 in the assay on SN12C renal is 3.96 µM; in the assay with SW-620 colon, 5.46 µM; with UACC-257 melanoma, 15.9 µM; in the assay with UO-31 renal, 6.14 µM. Moreover, the TGI is 19.5 µM in the assay with 786-0 renal; 32.9 µM with DU-145 prostate; 32.6 µM in the assay on HT29 colon; 12.8 µM in the assay on NCI-H522 lung; 65.3 µM in the assay on SF-268 CNS; 30.4 µM in the assay on SK-MEL-28 melanoma. Further, the TGI in the assay on SN12C renal stood at 19.8 µM; with SW-620 colon, 21.9 µM; with UACC-257 melanoma, 38.8 µM; in the assay on UO-31 renal, 19.8 µM.

For `O=C(CN1CCN(c2ccccn2)CC1)Nc1ccc(Cl)cc1C(=O)c1ccccc1Cl`, the GI50 in the assay on 786-0 renal is 1.57 µM; in the assay with DU-145 prostate it was greater than 100 µM; in the assay with HT29 colon, 8.92 µM; with NCI-H522 lung, 16.6 µM; with SF-268 CNS it was greater than 100 µM; with SK-MEL-28 melanoma, greater than 100 µM. Further, the GI50 in the assay with SN12C renal was greater than 100 µM; with SW-620 colon, greater than 100 µM; in the assay on UACC-257 melanoma it was 54.9 µM; with UO-31 renal it was 9.38 µM. Also, the TGI in the assay on 786-0 renal, in the assay on DU-145 prostate, in the assay on HT29 colon, in the assay on NCI-H522 lung, in the assay with SF-268 CNS and with SK-MEL-28 melanoma was greater than 100 µM each time. Besides, the TGI in the assay with SN12C renal, in the assay on SW-620 colon, in the assay with UACC-257 melanoma and with UO-31 renal was greater than 100 µM throughout.

`COc1cc[nH]c1/C=C1\C(=O)Nc2ccc([N+](=O)[O-])c(N3CC[C@@H](O)C3)c21`: the GI50 was 0.186 µM with 786-0 renal; 0.177 µM in the assay on DU-145 prostate; 0.209 µM in the assay with HT29 colon; 0.393 µM in the assay with NCI-H522 lung; 0.255 µM in the assay on SF-268 CNS; 0.277 µM with SK-MEL-28 melanoma. Besides, the GI50 in the assay with SN12C renal is 0.211 µM; with SW-620 colon, 0.205 µM; with UACC-257 melanoma it was 0.474 µM; with UO-31 renal, 0.267 µM. For the same molecule, the TGI in the assay with 786-0 renal stood at 3.56 µM; in the assay with DU-145 prostate, 2.83 µM; in the assay with HT29 colon it was 1.56 µM; with NCI-H522 lung, 1.23 µM; with SF-268 CNS, 1.29 µM; in the assay with SK-MEL-28 melanoma, 1.2 µM. For the same molecule, the TGI in the assay on SN12C renal was 4 µM; in the assay with SW-620 colon, 9.49 µM; in the assay on UACC-257 melanoma it was 1.64 µM; with UO-31 renal, 3.44 µM.

`Cn1c(=O)c2[nH]cnc2n(C)c1=O.[CH2-]C(Cc1cccc2cc(C(=O)O)c(=O)oc12)OC.[Hg+2].[OH-]` (stereo not given): the GI50 with 786-0 renal is 16.6 µM; with DU-145 prostate, 17 µM; in the assay with HT29 colon it was 17.1 µM; in the assay with NCI-H522 lung it was 15.1 µM; with SF-268 CNS, 16.9 µM; with SK-MEL-28 melanoma, 19.1 µM. Also, the GI50 is 18 µM in the assay with SN12C renal, 10.8 µM in the assay on SW-620 colon, 17.9 µM in the assay on UACC-257 melanoma and 16.1 µM in the assay with UO-31 renal. Also, the TGI with 786-0 renal was determined as 30.2 µM; with DU-145 prostate it was 31.6 µM; in the assay on HT29 colon, 32 µM; with NCI-H522 lung, 32.5 µM; in the assay with SF-268 CNS, 30.6 µM; with SK-MEL-28 melanoma, 33.5 µM. Besides, the TGI in the assay on SN12C renal is 32.5 µM; in the assay with SW-620 colon it was 28.7 µM; with UACC-257 melanoma, 31.8 µM; with UO-31 renal, 29.8 µM.
